US8163909B2, “Substituted hydroxyethyl amine compounds as beta-secretase modulators and methods of use” (Amgen Inc., priority 2007, dated 2012)
Like-named read-outs stand apart in the source and are kept apart here.

Columns and labels:
[1] = target: CYP2D6 (Homo sapiens, UniProt P10635); assay: CYP2D6 inhibition assay (bufuralol, pooled human liver microsomes)
[2] = target: CYP3A4 (CYP3A) (Homo sapiens, UniProt P08684); assay: in vitro; details: microsomes, pH 7.4;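 further: inhibition of CYP3A-mediated 1-hydroxymidazolam formation after 10 min incubation with NADPH, quantified by HPLC MS relative to metabolite produced without test compound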
[3] = Microsomal stability assay, rat liver microsomes;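 further: rat liver microsomes (0.25 mg/mL) with about 1 µM compound plus 1 mM NADPH, pH 7.4, 37 °C for 30 min, parent left measured by LC-MS/MS against 0 min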
[4] = system: Abeta peptide; assay: In vivo inhibition of beta-secretase (reduction of Abeta peptide in brain and cerebrospinal fluid); design: species or system rat; details: Rattus norvegicus, po, 4 h, orally administered at 30 mg/kg dose, measured after 4 hours;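 further: abeta peptide quantified by sandwich ELISA with electrochemiluminescence readout in rat brain supernatant or CSF, relative to vehicle-dosed control animals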
[5] = Microsomal stability assay, human liver microsomes;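 further: pooled human liver microsomes at 0.25 mg/mL with 1 µM compound and NADPH at 37 °C, pH 7.4, for 30 min, unchanged parent quantified by LC-MS/MS against the 0 min sample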
[6] = system: Aβ40 in conditioned medium of cells stably expressing Amyloid Precursor Protein (APP); assay: In vitro BACE cell-based assay (Aβ40 in conditioned medium, sandwich ELISA); details: Homo sapiens;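 further: compounds added as a dilution series, secreted peptide quantified by europium time-resolved fluorescence readout, potency fitted from percent of control versus compound concentration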
[7] = target: Beta Secretase enzyme (BACE) (Homo sapiens, UniProt P56817); assay: In vitro enzymatic BACE FRET (fluorescence resonance energy transfer) assay; assay type: biochemical;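 further: fluorescence read after 1 h with 50 nM quenched peptide substrate spanning the BACE cleavage site, in pH 4.2 acetate buffer containing 10% DMSO and nonionic detergent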
[8] = 2D6 IC50 (uM), CYP enzyme inhibition
[9] = rat cerebrospinal fluid, read-out: percent reduction of abeta peptide in the cerebrospinal fluid of the rat
[10] = HEK293, HEK cells, read-out: HEK cell assay
[11] = BACE enzyme assay, read-out: BACE1 FRET assay
[12] = HEK293, HEK cell-based assay, IC50's in uM, read-out: HEK cell assay
[13] = BACE enzyme assay, IC50's in uM, read-out: BACE1 FRET assay
[14] = rat brain, read-out: percent reduction of abeta peptide in the brain of the rat
[15] = 2D6 IC50 (uM), CYP2D6 inhibition
[16] = HEK293, HEK cell-based assay IC50, read-out: HEK cell assay
[17] = BACE enzyme assay IC50, read-out: BACE1 FRET assay

Sequence of CYP2D6 (P10635 whole entry): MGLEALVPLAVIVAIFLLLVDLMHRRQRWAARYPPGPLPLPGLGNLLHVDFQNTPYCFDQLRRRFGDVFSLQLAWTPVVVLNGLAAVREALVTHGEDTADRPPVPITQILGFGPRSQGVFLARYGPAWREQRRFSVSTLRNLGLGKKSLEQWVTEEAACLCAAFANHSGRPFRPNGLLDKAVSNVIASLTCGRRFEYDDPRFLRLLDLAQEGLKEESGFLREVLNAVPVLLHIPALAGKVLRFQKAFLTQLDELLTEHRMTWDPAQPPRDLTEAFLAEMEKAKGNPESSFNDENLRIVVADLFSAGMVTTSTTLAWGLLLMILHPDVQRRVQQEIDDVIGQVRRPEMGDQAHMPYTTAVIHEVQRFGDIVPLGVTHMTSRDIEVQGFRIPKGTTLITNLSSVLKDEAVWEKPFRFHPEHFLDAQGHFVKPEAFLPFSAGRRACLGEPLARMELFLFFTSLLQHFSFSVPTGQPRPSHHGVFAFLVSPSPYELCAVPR
Sequence of CYP3A4 (CYP3A) (P08684 2-503): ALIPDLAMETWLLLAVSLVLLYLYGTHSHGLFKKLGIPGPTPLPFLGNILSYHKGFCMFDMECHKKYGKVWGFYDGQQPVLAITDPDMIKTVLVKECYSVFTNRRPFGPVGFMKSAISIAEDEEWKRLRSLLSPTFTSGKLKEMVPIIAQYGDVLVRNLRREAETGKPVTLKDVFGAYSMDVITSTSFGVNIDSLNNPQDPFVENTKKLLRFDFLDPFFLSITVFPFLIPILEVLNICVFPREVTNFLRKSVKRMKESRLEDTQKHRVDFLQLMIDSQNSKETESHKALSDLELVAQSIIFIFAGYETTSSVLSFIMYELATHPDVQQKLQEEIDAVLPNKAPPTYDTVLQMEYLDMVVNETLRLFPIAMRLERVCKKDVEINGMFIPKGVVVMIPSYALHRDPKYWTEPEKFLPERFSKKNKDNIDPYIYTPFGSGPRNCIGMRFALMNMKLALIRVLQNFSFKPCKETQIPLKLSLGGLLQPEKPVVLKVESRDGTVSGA
Sequence of Beta Secretase enzyme (BACE) (P56817 46-501): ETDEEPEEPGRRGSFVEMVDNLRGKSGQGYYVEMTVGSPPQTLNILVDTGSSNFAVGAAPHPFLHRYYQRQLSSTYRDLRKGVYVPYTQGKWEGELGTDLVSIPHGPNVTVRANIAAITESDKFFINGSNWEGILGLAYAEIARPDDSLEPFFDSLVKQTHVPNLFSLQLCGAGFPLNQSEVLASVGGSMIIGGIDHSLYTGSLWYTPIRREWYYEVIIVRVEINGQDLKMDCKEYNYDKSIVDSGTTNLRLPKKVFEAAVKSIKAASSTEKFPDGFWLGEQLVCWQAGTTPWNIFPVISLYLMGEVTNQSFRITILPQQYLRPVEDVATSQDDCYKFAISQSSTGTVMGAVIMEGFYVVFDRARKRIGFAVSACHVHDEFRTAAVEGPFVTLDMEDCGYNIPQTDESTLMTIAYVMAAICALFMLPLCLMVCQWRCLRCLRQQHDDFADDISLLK

| SMILES | IC50 [1, 8] | IC50 [2] | RLM ([3]; rat liver microsomal data) | inhibition in vivo at 30 mg/kg [4, 9] | HLM ([5]; human liver microsomal data) | IC50 [6, 10] | IC50 [7, 11] | IC50 ([1]; 2D6 IC50, CYP2D6 inhibition) | RLM ([3]; rat liver microsomes) | HLM ([5]; human liver microsomes) | IC50 ([6]; HEK293, HEK cells, read-out: HEK cell assay (IC50)) | IC50 ([7]; read-out: BACE1 FRET assay (IC50)) | IC50 [6, 12] | IC50 [7, 13] | inhibition in vivo at 30 mg/kg [4, 14] | IC50 [1, 15] | IC50 [6, 16] | IC50 [7, 17] |
| --- | --- | --- | --- | --- | --- | --- | --- | --- | --- | --- | --- | --- | --- | --- | --- | --- | --- | --- |
| CC(=O)N[C@@H](Cc1ccccc1)[C@H](O)CN[C@H]1CC2(CCC2)Oc2c1cc(CC(C)(C)C)nc2-c1ccncc1 [Example 542] | ≥ 27 µM | 200 nM | 193 µL/min/mg | 10 to 80% | 36 µL/min/mg | 0.103 µM | 0.024 µM |  |  |  |  |  |  |  |  |  |  |  |
| CO[C@H](C)C(=O)N[C@@H](Cc1cc(F)cc(F)c1)[C@H](O)CN[C@H]1CC2(CCC2)Oc2c1cc(CC(C)(C)C)nc2-c1cncn1C [Example 652] |  | 160 nM |  | 10 to 80% |  |  |  | 2 µM | 50 µL/min/mg | 26 µL/min/mg | 0.02 µM | 0.028 µM |  |  |  |  |  |  |
| C#Cc1cccc(C[C@H](NC(=O)C(OC)OC)[C@H](O)CN[C@H]2CC3(CCC3)Oc3ncc(CC(C)(C)C)cc32)c1 [Example 844] | 1.5 µM | 100 nM | 44 µL/min/mg | ≥ 50% | 32 µL/min/mg |  |  |  |  |  |  |  | 0.006 µM | 0.005 µM |  |  |  |  |
| COC(OC)C(=O)N[C@@H](Cc1ccc2c(c1)OCO2)[C@H](O)CN[C@H]1CC2(CCC2)Oc2ncc(CC(C)(C)C)cc21 [Example 523, N-((1S,2R)-1-(1,3-benzodioxol-5-ylmethyl)-3-(((4′S)-6′-(2,2-dimethylpropyl)-3′,4′-dihydrospiro[cyclobutane-1,2′-pyrano[2,3-b]pyridin]-4′-yl)amino)-2-hydroxypropyl)-2,2-dimethoxyacetamide] | 5.4 µM | 100 nM | 94 µL/min/mg | 10 to 80% | 37 µL/min/mg | 0.033 µM | 0.019 µM |  |  |  |  |  |  |  | 5 to 80% |  |  |  |
| C#Cc1cccc(C[C@H](NC(=O)COC)[C@H](O)CN[C@H]2CC3(CCC3)Oc3ncc(CC(C)(F)F)cc32)c1 [Example 829] | 2.3 µM | 200 nM | 23 µL/min/mg |  | 40 µL/min/mg |  |  |  |  |  |  |  | 0.016 µM | 0.007 µM | ≥ 30% |  |  |  |
| COCC(=O)N[C@@H](Cc1ccc(F)cc1)[C@H](O)CN[C@H]1CC(C)(C)Oc2c1cc(CC(C)C)c1c2OCO1 [Example 747] |  | 200 nM |  | 10 to 80% |  |  |  |  | 217 µL/min/mg | 125 µL/min/mg |  |  |  |  |  | 9.1 µM | 0.243 µM | 0.209 µM |
| COCC(=O)N[C@@H](Cc1cccc(-n2ccnc2)c1)[C@H](O)CN[C@H]1CC2(CCC2)Oc2ncc(CC(C)(C)C)cc21 [Example 698, N-((1S,2R)-3-(((4′S)-6′-(2,2-dimethylpropyl)-3′,4′-dihydrospiro[cyclobutane-1,2′-pyrano[2,3-b]pyridin]-4′-yl)amino)-2-hydroxy-1-(3-(1H-imidazol-1-yl)benzyl)propyl)-2-methoxyacetamide] |  | ≤ 30 nM |  | 10 to 80% |  |  |  |  | 33 µL/min/mg | 58 µL/min/mg |  |  |  |  |  | 0.1 µM | 0.009 µM | 0.026 µM |
| COCC(=O)N[C@@H](Cc1cc(F)cc(-c2nccs2)c1)[C@H](O)CN[C@H]1CC2(CCC2)Oc2cnc(CC(C)(C)C)cc21 [Example 782, N-((1S,2R)-3-(((4′S)-6′-(2,2-dimethylpropyl)-3′,4′-dihydrospiro[cyclobutane-1,2′-pyrano[2,3-c]pyridin]-4′-yl)amino)-1-(3-fluoro-5-(1,3-thiazol-2-yl)benzyl)-2-hydroxypropyl)-2-methoxyacetamide] | 0.4 µM | 300 nM | 130 µL/min/mg | 10 to 80% | 94 µL/min/mg |  |  |  |  |  |  |  | 0.036 µM | 0.015 µM | 5 to 80% |  |  |  |
| CO[C@H](C)C(=O)N[C@@H](Cc1cc(F)cc(F)c1)[C@H](O)CN[C@H]1CC2(CCC2)Oc2c1cc(CC(C)C)nc2-c1cncn1C [Example 710] |  | 100 nM |  | 10 to 80% |  |  |  |  | 39 µL/min/mg | 16 µL/min/mg |  |  |  |  |  | 2.8 µM | 0.018 µM | 0.026 µM |
